Patent US12012417B2, “N-substituted tetrahydrothienopyridine derivatives and uses thereof” (NOVARTIS AG, priority 2018, dated 2024)

Tests used:
[1] = tested on: Dengue 1 virus MY97-10245; assay: High-content imaging cell-based flavivirus immunodetection (HCl-CFI) assay, Dengue 1; conditions: Dengue virus, A549, 48 h, read-out: Dengue 1 virus MY97-10245 in A549 using HCl [Inhibitor/IC50] Qualified AC50
[2] = tested on: Dengue 2 virus MY97-10340; assay: High-content imaging cell-based flavivirus immunodetection (HCl-CFI) assay, Dengue 2; conditions: Dengue virus, A549, 48 h, read-out: Dengue 2 virus MY97-10340 in A549 using HCl [Inhibitor/IC50] Qualified AC50, A549 cells, MOI 0.3, 48 h, viral E protein expression
Method: High-Content Imaging Cell-Based Flavivirus Immunodetection (HCl-CFI) Assay
A549 cells (7×10^3 cells per well) in a 384-well plate were infected with the DENV-2 (MY97-10340) strain at an MOI of 0.3. The cells were then treated with 3-fold, 10-point serial dilutions of test compound. After 48 h, the cells were fixed with paraformadehyde, and the viral E protein detected with 4G2 antibody labeled with Dylight™ 488 (GenScript). Cell nuclei were stained with Draq5 (Pierce/Thermo), and images were taken on the Opera imaging system (Perkin Elmer). A dose-response curve was plotted to calculate the effective concentration of compound needed to reduce expression of E protein by 50% (EC50) using GraphPad Prism.
The resulted EC50 values are summarized in Table 1 below: ±≥1 μM; 1 μM>++≥0.1 μM; 0.1 μm>+++

[3] = tested on: Dengue 3 virus MY05-34640-WT-C6/36; assay: High-content imaging cell-based flavivirus immunodetection (HCl-CFI) assay, Dengue 3; conditions: Dengue virus, A549, 48 h, read-out: Dengue 3 virus MY05-34640-WT-C6/36 in A549 using HCl [Inhibitor/IC50] Qualified AC50
[4] = tested on: Dengue 4 virus MY01-22713; assay: High-content imaging cell-based flavivirus immunodetection (HCl-CFI) assay, Dengue 4; conditions: Dengue virus, A549, 48 h, read-out: Dengue 4 virus MY01-22713 in A549 using HCl [Inhibitor/IC50] Qualified AC50, A549 cells, 48 h, viral E protein expression

Structure (SMILES) | EC50 [1] [nM] | EC50 [2] [nM] | EC50 [3] [nM] | EC50 [4] [nM]
CC1Cc2sc(NC(=O)Cc3ccc(S(N)(=O)=O)cc3)c(C#N)c2CN1CC1CCCCC1 (centres unmarked) [Example 62, N-(3-cyano-5-(cyclohexylmethyl)-6-methyl-4,5,6,7-tetrahydrothieno[3,2-c]pyridin-2-yl)-2-(4-sulfamoylphenyl)acetamide] | 100 to 1000 | < 100 | < 100 | < 100
CCC1Cc2sc(NC(=O)Cc3ccc(S(N)(=O)=O)cc3)c(C#N)c2CN1Cc1cccc(F)c1 (centres unmarked) [Example 87, N-(3-cyano-6-ethyl-5-(3-fluorobenzyl)-4,5,6,7-tetrahydrothieno[3,2-c]pyridin-2-yl)-2-(4-sulfamoylphenyl)acetamide] | 100 to 1000 | < 100 | < 100 | < 100
COc1cc(S(N)(=O)=O)ccc1CC(=O)Nc1sc2c(c1C#N)CN(Cc1cccc(F)c1)CC2 [Example 24, N-(3-cyano-5-(3-fluorobenzyl)-4,5,6,7-tetrahydrothieno[3,2-c]pyridin-2-yl)-2-(2-methoxy-4-sulfamoylphenyl)acetamide] | 100 to 1000 | 100 to 1000 | < 100 | 100 to 1000
CS(=O)(=O)c1ccc(CC(=O)Nc2sc3c(c2C#N)CCN(Cc2cc(Cl)ccc2Cl)C3)cc1 [Example 121, N-(3-cyano-6-(2,5-dichlorobenzyl)-4,5,6,7-tetrahydrothieno[2,3-c]pyridin-2-yl)-2-(4-(methylsulfonyl)phenyl)acetamide] | > 1000 | 100 to 1000 | > 1000 | 100 to 1000
CC(C1CCCCC1)N1CCc2sc(NC(=O)Cc3ccc(S(N)(=O)=O)cc3)c(C#N)c2C1 (centres unmarked) [Example 3, N-(3-cyano-5-(1-cyclohexylethyl)-4,5,6,7-tetrahydrothieno[3,2-c]pyridin-2-yl)-2-(4-sulfamoylphenyl)acetamide] | 100 to 1000 | < 100 | < 100 | < 100
COc1cc(Cl)cc(CC(=O)Nc2sc3c(c2C#N)CN(Cc2cccc(F)c2)CC3)c1 [Example 39, 2 (3 chloro-5-methoxyphenyl)-N-(3-cyano-5-(3-fluorobenzyl)-4,5,6,7-tetrahydrothieno[3,2-c]pyridin-2-yl)acetamide] | > 1000 | > 1000 | 100 to 1000 | 100 to 1000
CC1Cc2sc(NC(=O)Cc3ccc(S(N)(=O)=O)cc3)c(C#N)c2CN1CCC1CCCCC1 (centres unmarked) [Example 68, N-(3-cyano-5-(2-cyclohexylethyl)-6-methyl-4,5,6,7-tetrahydrothieno[3,2-c]pyridin-2-yl)-2-(4-sulfamoylphenyl)acetamide] | 100 to 1000 | < 100 | < 100 | < 100
COc1ccccc1CN1CCc2c(sc(NC(=O)Cc3ccc(S(N)(=O)=O)cc3)c2C#N)C1 [Example 94, N-(3-cyano-6-(2-methoxybenzyl)-4,5,6,7-tetrahydrothieno[2,3-c]pyridin-2-yl)-2-(4-sulfamoylphenyl) acetamide] | > 1000 | > 1000 | 100 to 1000 | 100 to 1000
N#Cc1c(NC(=O)Cc2ccc(S(N)(=O)=O)cc2)sc2c1CCN(CC1CCCCC1)CC2 [Example 125, N-(3-cyano-6-(cyclohexylmethyl)-5,6,7,8-tetrahydro-4H-thieno[2,3-d]azepin-2-yl)-2-(4-sulfamoylphenyl)acetamide] | > 1000 | 100 to 1000 | 100 to 1000 | 100 to 1000
N#Cc1c(NC(=O)Cc2ccc3c(c2)CNC3)sc2c1CN(Cc1cccc(F)c1)CC2 [Example 26, N-(3-cyano-5-(3-fluorobenzyl)-4,5,6,7-tetrahydrothieno[3,2-c]pyridin-2-yl)-2-(isoindolin-5-yl)acetamide] | > 1000 | > 1000 | > 1000 | > 1000
N#Cc1c(NC(=O)Cc2ccc3c(c2)CNS3(=O)=O)sc2c1CN(CC1CCCCC1)CC2 [Example 16, N-(3-cyano-5-(cyclohexylmethyl)-4,5,6,7-tetrahydrothieno[3,2-c]pyridin-2-yl)-2-(1,1-dioxido-2,3-dihydrobenzo[d]isothiazol-5-yl)acetamide] | 100 to 1000 | < 100 | < 100 | < 100
N#Cc1c(NC(=O)Cc2ccc3c(c2)CCS3(=O)=O)sc2c1CN(CC1CCCCC1)CC2 [Example 18, N-(3-cyano-5-(cyclohexylmethyl)-4,5,6,7-tetrahydrothieno[3,2-c]pyridin-2-yl)-2-(1,1-dioxido-2,3-dihydrobenzo[b]thiophen-5-yl)acetamide] | < 100 | < 100 | < 100 | < 100
N#Cc1c(NC(=O)Cc2ccc(S(N)(=O)=O)cc2)sc2c1CCN(Cc1ccccc1Cl)C2 [Example 114, N-(6-(2-chlorobenzyl)-3-cyano-4,5,6,7-tetrahydrothieno[2,3-c]pyridin-2-yl)-2-(4-sulfamoylphenyl)acetamide] | 100 to 1000 | 100 to 1000 | 100 to 1000 | < 100
N#Cc1c(NC(=O)Cc2ccc(S(N)(=O)=O)s2)sc2c1CN(CC1CCCCC1)CC2 [Example 84, N-(3-cyano-5-(cyclohexylmethyl)-4,5,6,7-tetrahydrothieno[3,2-c]pyridin-2-yl)-2-(5-sulfamoylthiophen-2-yl)acetamide] | < 100 | < 100 | < 100 | < 100
CCC1(CC)Cc2sc(NC(=O)Cc3ccc(S(N)(=O)=O)cc3)c(C#N)c2CN1CC1CCCCC1 [Example 76, N-(3-cyano-5-(cyclohexylmethyl)-6,6-diethyl-4,5,6,7-tetrahydrothieno[3,2-c]pyridin-2-yl)-2-(4-sulfamoylphenyl)acetamide] | < 100 | < 100 | < 100 | < 100
CNS(=O)(=O)c1ccccc1CC(=O)Nc1sc2c(c1C#N)CN(Cc1cccc(F)c1)CC2 [Example 28, N-(3-cyano-5-(3-fluorobenzyl)-4,5,6,7-tetrahydrothieno[3,2-c]pyridin-2-yl)-2-(2-(N-methylsulfamoyl)phenyl)acetamide] | 100 to 1000 | 100 to 1000 | < 100 | < 100
CC1(C)Cc2sc(NC(=O)Cc3ccc(S(N)(=O)=O)cc3)c(C#N)c2CN1Cc1cccc(F)c1 [Example 81, N-(3-cyano-5-(3-fluorobenzyl)-6,6-dimethyl-4,5,6,7-tetrahydrothieno[3,2-c]pyridin-2-yl)-2-(4-sulfamoylphenyl)acetamide] | 100 to 1000 | < 100 | < 100 | < 100
CN(C)S(=O)(=O)c1ccc(CC(=O)Nc2sc3c(c2C#N)CN(CC2CCCCC2)CC3)cc1 [Example 14, N-(3-cyano-5-(cyclohexylmethyl)-4,5,6,7-tetrahydrothieno[3,2-c]pyridin-2-yl)-2-(4-(N,N-dimethylsulfamoyl)phenyl)acetamide] | 100 to 1000 | 100 to 1000 | 100 to 1000 | 100 to 1000
N#Cc1c(NC(=O)Cc2ccc(S(N)(=O)=O)cc2)sc2c1CCN(Cc1cc(F)cc(F)c1)C2 [Example 93, N-(3-cyano-6-(3,5-difluorobenzyl)-4,5,6,7-tetrahydrothieno[2,3-c]pyridin-2-yl)-2-(4-sulfamoylphenyl) acetamide] | 100 to 1000 | < 100 | < 100 | < 100
N#Cc1c(NC(=O)Cc2ccc(S(N)(=O)=O)cc2)sc2c1CCN(Cc1c(Cl)cccc1Cl)C2 [Example 112, N-(3-cyano-6-(2,6-dichlorobenzyl)-4,5,6,7-tetrahydrothieno[2,3-c]pyridin-2-yl)-2-(4-sulfamoylphenyl)acetamide] | > 1000 | 100 to 1000 | 100 to 1000 | < 100
N#Cc1c(NC(=O)Cc2ccc(S(N)(=O)=O)cc2)sc2c1CCN(Cc1c(F)cccc1F)C2 [Example 116, N-(3-cyano-6-(2,6-difluorobenzyl)-4,5,6,7-tetrahydrothieno[2,3-c]pyridin-2-yl)-2-(4-sulfamoylphenyl)acetamide] | 100 to 1000 | < 100 | < 100 | < 100
N#Cc1c(NC(=O)Cc2ccc(S(N)(=O)=O)cc2)sc2c1CN(CC13CC(F)(C1)C3)CC2 [Example 1, N-(3-cyano-5-((3-fluorobicyclo[1.1.1]pentan-1-yl)methyl)-4,5,6,7-tetrahydrothieno[3,2-c]pyridin-2-yl)-2-(4-sulfamoylphenyl)acetamide] | > 1000 | 100 to 1000 | 100 to 1000 | 100 to 1000
N#Cc1c(NC(=O)Cc2ccc(S(N)(=O)=O)cc2)sc2c1CN(CC1CCCCC1)CC2 [Example 6, N-(3-cyano-5-(cyclohexylmethyl)-4,5,6,7-tetrahydrothieno[3,2-c]pyridin-2-yl)-2-(4-sulfamoylphenyl)acetamide] | 100 to 1000 | < 100 | < 100 | < 100
